# Measurements reported in paper PMC10184313, “Inhibition of Thiamine Diphosphate-Dependent Enzymes by Triazole-Based Thiamine Analogues” (ACS Medicinal Chemistry Letters, 2023).
# Like-named read-outs stand apart in the source and are kept apart here.
# Key:
# [1] = target: T1, A. viridans PO (Aerococcus viridans, UniProt A9X9K8); test: A. viridans PO inhibitory activity assay (quinoneimine dye); assay type: biochemical
# T1 sequence (A9X9K8 1-592): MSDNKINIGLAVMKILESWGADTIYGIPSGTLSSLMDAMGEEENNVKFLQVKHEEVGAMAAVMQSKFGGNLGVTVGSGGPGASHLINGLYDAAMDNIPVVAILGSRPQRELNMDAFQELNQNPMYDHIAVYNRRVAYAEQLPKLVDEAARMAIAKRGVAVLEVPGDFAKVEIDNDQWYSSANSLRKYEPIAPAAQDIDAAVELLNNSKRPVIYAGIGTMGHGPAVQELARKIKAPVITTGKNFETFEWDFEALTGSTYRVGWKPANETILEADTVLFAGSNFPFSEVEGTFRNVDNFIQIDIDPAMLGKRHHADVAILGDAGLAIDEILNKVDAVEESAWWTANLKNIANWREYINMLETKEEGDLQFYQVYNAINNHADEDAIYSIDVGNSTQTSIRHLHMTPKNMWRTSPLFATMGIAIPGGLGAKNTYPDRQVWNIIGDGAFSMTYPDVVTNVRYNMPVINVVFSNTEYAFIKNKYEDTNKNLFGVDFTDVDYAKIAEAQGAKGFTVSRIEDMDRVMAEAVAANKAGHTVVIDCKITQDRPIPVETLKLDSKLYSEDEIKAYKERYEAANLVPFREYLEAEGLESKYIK
# Description: A. viridans PO inhibitory activity assay. A. viridans PO and horseradish peroxidase were purchased from Sigma. A. viridans PO activity was determined by monitoring appearance of quinoneimine dye at 550 nm using a microplate reader (CLARIOstar) and conducted as described 1 with some modifications.
# The percentage inhibition of compounds against A. viridans PO was assayed at a final concentration of 250 µM. The reaction buffer (50 mM KH 2PO4 and 10 mM MgCl 2, pH 5.9) contained 50 µM ThDP (or 125 µM in the competition assay), 10 µM flavin adenine dinucleotide (FAD), 0.15% 4-Aminoantipyrine, 0.3% N-Ethyl-N-(2-hydroxy-3-sulfopropyl)-m-toluidine (EHSPT), 50 µg/mL horseradish peroxidase and 0.35 U/mL A. viridans PO. The reaction mixture was preincubated at 37 °C for 30 min, then reaction was initiated by adding pyruvate to a final concentration of 50 mM. To determine the IC 50, inhibitor concentration was varied (2-1000 µM) with ThDP concentration at 50 µM. 1 unit of PO activity is defined as 1 μmol of hydrogen peroxide produced per minute. The enzyme IC 50 values were calculated as described for the PDHc E1 assay. […]
# [2] = target: T2, porcine PDHc E1 (Sus scrofa, UniProt P29804); test: PDHc E1 inhibitory activity assay (DCPIP reduction); assay type: biochemical
# T2 sequence (P29804 31-390): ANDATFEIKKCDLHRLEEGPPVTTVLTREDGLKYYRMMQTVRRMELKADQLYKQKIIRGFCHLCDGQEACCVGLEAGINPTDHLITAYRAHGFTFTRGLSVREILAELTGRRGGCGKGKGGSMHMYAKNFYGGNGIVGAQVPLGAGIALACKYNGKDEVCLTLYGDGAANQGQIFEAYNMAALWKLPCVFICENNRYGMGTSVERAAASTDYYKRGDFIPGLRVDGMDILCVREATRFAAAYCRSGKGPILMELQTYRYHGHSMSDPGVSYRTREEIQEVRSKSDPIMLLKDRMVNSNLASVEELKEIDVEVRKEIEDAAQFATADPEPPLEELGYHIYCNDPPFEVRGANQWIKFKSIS
# Description: Enzyme assays – Methods and Results S1
# Ligand efficiencies – Calculations S3 […]
# Enzyme assays (Methods and Results)
# PDHc E1 inhibitory activity assay. Porcine PDHc E1 was purchased from Sigma. Its activity was […]
# determined by monitoring 2,6-dichlorophenolindophenol (DCPIP) reduction at 600 nm using a […]
# microplate reader (CLARIOstar) and conducted as described 1,2 with some modifications. The percentage inhibition of compounds against porcine PDHc E1 was assayed at a final concentration of 250 µM. The reaction buffer (50 mM KH 2PO4 and 1 mM MgCl 2, pH 7) contained 50 µM ThDP (or 125 µM in the competition assay), 0.25 mM DCPIP, and 2 mg/ml porcine PDHc E1. The reaction mixture […]
# was preincubated at 37 °C for 30 min, then the reaction was initiated by adding pyruvate to a final […]
# concentration of 50 mM. To determine the half-maximal inhibitory concentration (IC 50 ), ThDP […]
# concentration was lowered to 10 µM, and inhibitor concentration was varied (0.4-200 µM). Specific […]
# activity was calculated using the molar extinction coefficient of DCPIP, 21 mM -1 cm-1.3 The enzyme […]
# IC50 values were calculated from non-linear regression curve fitting using GraphPad Prism.
# [3] = system: P. falciparum strain 3D7; test: Anti-plasmodial activity assay (SYBR-Safe); assay type: cell-based, Plasmodium falciparum; conditions: Plasmodium falciparum
# Description: Next the effects of the thiamine/ThDP analogues on in vitro proliferation of the 3D7 strain of P. falciparum were determined. […] Parasite proliferation was measured by SYBR-Safe assay of parasite DNA.[11],[15]
# Cell-based assays (Results)
# Anti-plasmodial activity assay. This study used human malaria parasite P. falciparum strain 3D7 (chloroquine-sensitive) and the same strain expressing an extra copy of TPK with a GFP-tag ( PfTPK-GFP) generated as previously described. 9 The intraerythrocytic stage of the parasites were maintained essentially as previously described. 10 Compounds were tested at concentrations up to a highest final […]
# were prepared in dimethyl sulfoxide (DMSO) followed by dilution in RPMI 1640 medium in the absence of thiamine or in the presence of 2.97 µM (or 297 µM) thiamine. The final concentration of DMSO that the parasites were exposed to never exceeded 0.05%. Two-fold serial dilutions were then performed, with each concentration tested in triplicate. The assay was performed as described 11 with some modifications. Experiments were initiated with parasites in the ring-stage, a parasitemia level of 0.5% and a haematocrit of 2%. Chloroquine (0.5 µM) was used as the positive control ( i.e. complete inhibition of parasite proliferation), and parasites maintained in the absence of any inhibitor represented 100% parasite proliferation. The final volume in each well was 200 µL. Plates were incubated at 37 °C, under an atmosphere of 96% nitrogen, 3% carbon dioxide and 1% oxygen. Parasite proliferation was measured by performing SYBR-Safe assay. 12 The concentration at which the compound suppresses […]
# Excel and analysed by non-linear regression plot using GraphPad Prism. The data were averaged from three independent experiments. […]
# [4] = [Compound] = 250 μM, [ThDP] = 50 μM
# [5] = increased ThDP: [Compound] = 250 μM, [ThDP] = 125 μM
SMILES,"Inhibition (%) PO [1, 4]","Inhibition (%) PDHc E1 [2, 4]","Inhibition (%) PO [1, 5]","Inhibition (%) PDHc E1 [2, 5]","IC50 ([3]; 3D7, 3D7, [Thiamine] = 2.97 μM, read-out: IC50 of Suppression of P. falciparum proliferation, [Thiamine] = 2.97 μM)","IC50 ([3]; 3D7, 3D7, [Thiamine] = 297 μM, read-out: IC50 of Suppression of P. falciparum proliferation, [Thiamine] = 297 μM)","IC50 ([3]; 3D7, 3D7, thiamine-free medium, read-out: IC50 of Suppression of P. falciparum proliferation, Thiamine-free)"
Cc1ncc(Cn2cc(CCO)nn2)c(N)n1 [Compound 9a],< 20%,55 ± 2%,,,,,
Cc1ncc(Cn2cc(CCCO)nn2)c(N)n1 [Compound 9b],< 20%,52 ± 3%,,,,,
Cc1ncc(Cn2cc(CCCCO)nn2)c(N)n1 [Compound 9c],< 20%,57 ± 2%,,,,,
Cc1ncc(Cn2cc(CCOC(=O)c3cccc(-c4noc(C(F)(F)F)n4)c3)nn2)c(N)n1 [Compound 13a],< 20%,72 ± 2%,,,,,
Cc1ncc(Cn2cc(CCOC(=O)c3cccc(C#N)c3)nn2)c(N)n1 [Compound 14a],< 20%,71 ± 4%,,,,,
Cc1ncc(Cn2cc(CCn3cc(-c4ccccc4)nn3)nn2)c(N)n1 [Compound 15a],22 ± 2%,45 ± 3%,<20%,<20%,,,
Cc1ncc(Cn2cc(CCCn3cc(-c4ccccc4)nn3)nn2)c(N)n1 [Compound 15b],< 20%,65 ± 4%,<20%,40 ± 4%,,,
Cc1ncc(Cn2cc(CCCCn3cc(-c4ccccc4)nn3)nn2)c(N)n1 [Compound 15c],< 20%,> 90%,<20%,75 ± 4%,,,
Cc1ncc(Cn2cc(CCn3cc(-c4ccc(F)cc4)nn3)nn2)c(N)n1 [Compound 16a],< 20%,42 ± 2%,<20%,<20%,> 200 µM,> 200 µM,> 200 µM
Cc1ncc(Cn2cc(CCNS(=O)(=O)C(F)(F)F)nn2)c(N)n1 [Compound 18a],< 20%,50 ± 2%,,,,,
Cc1ncc(Cn2cc(CCCNS(=O)(=O)C(F)(F)F)nn2)c(N)n1 [Compound 18b],< 20%,55 ± 2%,,,,,
Cc1ncc(Cn2cc(CCCCNS(=O)(=O)C(F)(F)F)nn2)c(N)n1 [Compound 18c],22 ± 4%,71 ± 3%,,,,,
Cc1ncc(Cn2cc(CCNC(=O)c3cccc(-c4noc(C(F)(F)F)n4)c3)nn2)c(N)n1 [Compound 19a],< 20%,48 ± 3%,,,,,
Cc1ncc(Cn2cc(CCNC(=O)c3cccc(C#N)c3)nn2)c(N)n1 [Compound 20a],< 20%,46 ± 4%,,,,,
COc1cccc(C(=O)NCCc2cn(Cc3cnc(C)nc3N)nn2)c1 [Compound 21a],< 20%,67 ± 4%,,,,,
COc1cccc(C(=O)NCCCc2cn(Cc3cnc(C)nc3N)nn2)c1 [Compound 21b],< 20%,61 ± 2%,,,,,
COc1cccc(C(=O)NCCCCc2cn(Cc3cnc(C)nc3N)nn2)c1 [Compound 21c],< 20%,60 ± 5%,,,,,
COc1ccccc1C(=O)NCCc1cn(Cc2cnc(C)nc2N)nn1 [Compound 22a],< 20%,83 ± 4%,,,,,
COc1ccccc1C(=O)NCCCc1cn(Cc2cnc(C)nc2N)nn1 [Compound 22b],< 20%,58 ± 3%,,,,,
COc1ccccc1C(=O)NCCCCc1cn(Cc2cnc(C)nc2N)nn1 [Compound 22c],< 20%,58 ± 2%,,,,,
Cc1ncc(Cn2cc(CCC(=O)NO)nn2)c(N)n1 [Compound 24a],< 20%,77 ± 3%,,,,,
Cc1ncc(Cn2cc(CCC(=O)Nc3ccccc3N)nn2)c(N)n1 [Compound 26a],< 20%,75 ± 5%,,,,,
Cc1ncc(Cn2cc(CCCC(=O)Nc3ccccc3N)nn2)c(N)n1 [Compound 26b],< 20%,59 ± 2%,,,,,
Cc1ncc(Cn2cc(CCCCC(=O)Nc3ccccc3N)nn2)c(N)n1 [Compound 26c],< 20%,64 ± 4%,,,,,
"Cc1ncc(C[n+]2csc(CCO[P@@](=O)(O)OP(=O)(O)O)c2C)c(O)n1 [OxThDP 7b, oxythiamine diphosphate, reference compound]",48 ± 4%,> 90%,32 ± 5%,75 ± 3%,,,
